Patent US20250376461A1, “INDAZOLE DERIVATIVES FOR TREATING TRPM3-MEDIATED DISORDERS” (Katholieke Universiteit Leuven, priority 2022, published 2025)

Each molecule was assayed against T1, mouse TRPM3α2 (mTRPM3) ion channel (Mus musculus, UniProt J9SQF3) (assay: TRPM3 ion channel driven Ca2+ uptake, Fluo-4 AM assay, mTRPM3alpha2 overexpressing flip-in HEK293 cells stimulated with pregnenolone sulfate (50 μM)). Details: mTRPM3 overexpressing HEK293 cells stimulated with pregnenolone sulfate (50 μM), activity ranges A, B, C.
T1 construct: expressed in transfected cells; host or cells: flip-in HEK293
T1 sequence (J9SQF3 1-1709 isoform J9SQF3-12): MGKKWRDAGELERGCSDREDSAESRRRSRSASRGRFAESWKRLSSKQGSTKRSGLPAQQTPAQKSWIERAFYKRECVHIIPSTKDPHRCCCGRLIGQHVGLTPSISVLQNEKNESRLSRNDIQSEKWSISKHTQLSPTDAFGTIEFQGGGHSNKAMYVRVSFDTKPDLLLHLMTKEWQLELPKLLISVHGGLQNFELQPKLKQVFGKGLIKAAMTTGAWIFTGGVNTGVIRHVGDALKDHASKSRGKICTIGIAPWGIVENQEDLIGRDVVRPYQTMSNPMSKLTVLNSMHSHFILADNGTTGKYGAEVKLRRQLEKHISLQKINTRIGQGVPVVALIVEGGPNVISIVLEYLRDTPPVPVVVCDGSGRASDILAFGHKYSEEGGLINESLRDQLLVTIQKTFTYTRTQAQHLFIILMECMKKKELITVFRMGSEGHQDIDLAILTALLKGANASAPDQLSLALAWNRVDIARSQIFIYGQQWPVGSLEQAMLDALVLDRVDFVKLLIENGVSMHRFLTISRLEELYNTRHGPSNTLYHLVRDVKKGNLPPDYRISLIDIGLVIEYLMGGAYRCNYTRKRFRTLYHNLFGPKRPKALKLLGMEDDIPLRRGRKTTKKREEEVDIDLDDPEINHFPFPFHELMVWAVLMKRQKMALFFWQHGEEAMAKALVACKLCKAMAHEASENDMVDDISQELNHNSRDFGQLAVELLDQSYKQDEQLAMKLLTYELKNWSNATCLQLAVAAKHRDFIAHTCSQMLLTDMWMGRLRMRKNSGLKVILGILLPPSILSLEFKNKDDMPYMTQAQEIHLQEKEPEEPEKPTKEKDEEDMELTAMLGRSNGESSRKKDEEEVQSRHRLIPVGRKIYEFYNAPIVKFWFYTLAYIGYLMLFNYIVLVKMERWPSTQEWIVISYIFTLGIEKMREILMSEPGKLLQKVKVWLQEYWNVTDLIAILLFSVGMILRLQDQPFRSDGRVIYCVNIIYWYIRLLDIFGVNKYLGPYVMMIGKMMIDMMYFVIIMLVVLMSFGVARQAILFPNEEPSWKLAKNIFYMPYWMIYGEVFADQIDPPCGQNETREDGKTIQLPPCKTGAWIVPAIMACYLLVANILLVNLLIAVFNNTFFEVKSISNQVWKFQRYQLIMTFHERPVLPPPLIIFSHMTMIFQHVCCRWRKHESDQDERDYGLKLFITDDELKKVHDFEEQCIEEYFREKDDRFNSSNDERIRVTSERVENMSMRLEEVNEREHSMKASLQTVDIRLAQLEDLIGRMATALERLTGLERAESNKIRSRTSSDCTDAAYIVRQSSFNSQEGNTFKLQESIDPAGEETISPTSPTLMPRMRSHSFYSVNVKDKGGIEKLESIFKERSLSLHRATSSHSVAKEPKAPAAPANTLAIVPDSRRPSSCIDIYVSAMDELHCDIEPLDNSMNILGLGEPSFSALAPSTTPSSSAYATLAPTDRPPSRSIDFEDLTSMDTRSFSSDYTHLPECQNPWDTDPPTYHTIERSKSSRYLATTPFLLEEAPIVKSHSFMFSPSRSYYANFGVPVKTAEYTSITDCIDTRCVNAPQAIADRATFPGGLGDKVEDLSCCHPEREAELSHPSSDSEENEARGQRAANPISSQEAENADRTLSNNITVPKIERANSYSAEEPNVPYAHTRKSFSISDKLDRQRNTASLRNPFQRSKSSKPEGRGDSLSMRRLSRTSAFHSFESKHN
Format: cell-based
How it was run: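 Flip-in HEK293 cells overexpressing mTRPM3α2, loaded with Fluo-4 AM, added at ±2000 cells/well to plates holding compound plus 50 μM pregnenolone sulfate in Ca2+-containing Krebs buffer. Fluorescence (ex 485/em 535 nm) read immediately. Percent inhibition normalised between vehicle and positive-control inhibitor; IC50 derived.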
`Cn1nc2ccc(OCC3CCCC3)cc2c1C(=O)NC(C)(CO)CO` [Cpd 144, 5-(cyclopentylmethoxy)-N-(1,3-dihydroxy-2-methylpropan-2-yl)-2-methyl-2H-indazole-3-carboxamide] was tested, and the IC50 was > 20 µM. `Cn1nc2ccc(OCC3CCCC3)cc2c1C(=O)NC(C)(C)C(N)=O` [Cpd 145, 2-{[5-(cyclopentylmethoxy)-2-methyl-2H-indazol-3-yl]formamido}-2-methylpropanamide] was tested, and the IC50 was 1 to 20 µM. In the case of `Cn1nc2ccc(OCC3(C#N)CC3)cc2c1C(=O)NC(C)(CO)CO` [Cpd 146, 5-[(1-cyanocyclopropyl)methoxy]-N-(1,3-dihydroxy-2-methylpropan-2-yl)-2-methyl-2H-indazole-3-carboxamide], the IC50 is reported as > 20 µM. `Cc1ncc(COc2ccc3nn(C)c(C(=O)NC(CO)(CO)CO)c3c2)s1` [Cpd 147, N-[1,3-dihydroxy-2-(hydroxymethyl)propan-2-yl]-2-methyl-5-[(2-methyl-1,3-thiazol-5-yl)methoxy]-2H-indazole-3-carboxamide] showed an IC50 of 1 to 20 µM. `Cn1nc2ccc(OCC3(C#N)CC3)cc2c1C(=O)N[C@@H](CO)C(N)=O` [Cpd 148, (2S)-2-({5-[(1-cyanocyclopropyl)methoxy]-2-methyl-2H-indazol-3-yl}formamido)-3-hydroxypropanamide] gave an IC50 of 1 to 20 µM. `Cc1ncc(COc2ccc3nn(C)c(C(=O)N[C@H](C(N)=O)[C@@H](C)O)c3c2)s1` [Cpd 149, (2S,3R)-3-hydroxy-2-({2-methyl-5-[(2-methyl-1,3-thiazol-5-yl)methoxy]-2H-indazol-3-yl}formamido)butanamide] was tested, and the IC50 was < 1 µM. Work on `Cc1ncc(COc2ccc3nn(C)c(C(=O)NCC(F)F)c3c2)s1` [Cpd 150, N-(2,2-difluoroethyl)-2-methyl-5-[(2-methyl-1,3-thiazol-5-yl)methoxy]-2H-indazole-3-carboxamide] yielded an IC50 of 1 to 20 µM. For `Cn1nc2ccc(OCc3ccccn3)cc2c1C(=O)N[C@@H]1CCN(CCO)C1=O` [Cpd 152, N-[(3R)-1-(2-hydroxyethyl)-2-oxopyrrolidin-3-yl]-2-methyl-5-[(pyridin-2-yl)methoxy]-2H-indazole-3-carboxamide], the IC50 was 1 to 20 µM. With `Cn1nc2ccc(OCc3ccccn3)cc2c1C(=O)N[C@H]1CCN(CCO)C1=O` [Cpd 153, N-[(3S)-1-(2-hydroxyethyl)-2-oxopyrrolidin-3-yl]-2-methyl-5-[(pyridin-2-yl)methoxy]-2H-indazole-3-carboxamide] the IC50 was > 20 µM. With `Cn1cc(COc2ccc3nn(C)c(C(=O)NC(C)(CO)C(N)=O)c3c2)cn1` (stereo not drawn) [Cpd 156, 3-hydroxy-2-methyl-2-({2-methyl-5-[(1-methyl-1H-pyrazol-4-yl)methoxy]-2H-indazol-3-yl}formamido)propanamide] the IC50 was 1 to 20 µM. With `CCC(CO)(NC(=O)c1c2cc(OCc3ccccn3)ccc2nn1C)C(N)=O` (stereo not drawn) [Cpd 189, 2-(hydroxymethyl)-2-({2-methyl-5-[(pyridin-2-yl)methoxy]-2H-indazol-3-yl}formamido)butanamide] the IC50 was < 1 µM. `CC1CC(COc2ccc3nn(C)c(C(=O)NC(C)(CO)C(N)=O)c3c2)C1` (stereo not drawn) [Cpd 196, 3-hydroxy-2-methyl-2-({2-methyl-5-[(3-methylcyclobutyl)methoxy]-2H-indazol-3-yl}formamido)propenamide] showed an IC50 of 1 to 20 µM. In the case of `Cn1nc2ccc(OCc3ccccc3)cc2c1C(=O)O` [Cpd 197, 5-(benzyloxy)-2-methyl-2H-indazole-3-carboxylic acid], the IC50 is reported as 1 to 20 µM. In the case of `Cn1nc2ccc(OCc3ccccc3F)cc2c1C(=O)O` [Cpd 198, 5-[(2-fluorophenyl)methoxy]-2-methyl-2H-indazole-3-carboxylic acid], the IC50 is reported as 1 to 20 µM. With `Cc1ncsc1COc1ccc2nn(C)c(C(=O)O)c2c1` [Cpd 199, 2-methyl-5-[(4-methyl-1,3-thiazol-5-yl)methoxy]-2H-indazole-3-carboxylic acid] the IC50 was > 20 µM. In the case of `Cn1nc2ccc(OCc3ccccn3)cc2c1C(=O)NCC(F)(F)F` [Cpd 204, 2-methyl-5-[(pyridin-2-yl)methoxy]-N-(2,2,2-trifluoroethyl)-2H-indazole-3-carboxamide], the IC50 is reported as > 20 µM. `Cn1nc2ccc(OCc3ccccn3)cc2c1C(=O)NCCO` [Cpd 205, N-(2-hydroxyethyl)-2-methyl-5-[(pyridin-2-yl)methoxy]-2H-indazole-3-carboxamide] was tested, and the IC50 was > 20 µM. Work on `Cn1nc2ccc(OCc3ccccn3)cc2c1C(=O)NCc1ncc[nH]1` [Cpd 206, N-[(1H-imidazol-2-yl)methyl]-2-methyl-5-[(pyridin-2-yl)methoxy]-2H-indazole-3-carboxamide] yielded an IC50 of 1 to 20 µM. `CN(C)CC(C)(C)CNC(=O)c1c2cc(OCc3ccccn3)ccc2nn1C` [Cpd 207, N-[3-(dimethylamino)-2,2-dimethylpropyl]-2-methyl-5-[(pyridin-2-yl)methoxy]-2H-indazole-3-carboxamide] was tested, and the IC50 was > 20 µM. `Cn1nc2ccc(OCc3ccccn3)cc2c1C(=O)NCC(F)(F)c1ccccc1` [Cpd 208, N-(2,2-difluoro-2-phenylethyl)-2-methyl-5-[(pyridin-2-yl)methoxy]-2H-indazole-3-carboxamide] was tested, and the IC50 was > 20 µM. For `Cn1nc2ccc(OCc3ccccn3)cc2c1C(=O)NCc1c(F)cccc1C(F)(F)F` [Cpd 209, N-{[2-fluoro-6-(trifluoromethyl)phenyl]methyl}-2-methyl-5-[(pyridin-2-yl)methoxy]-2H-indazole-3-carboxamide], the IC50 was > 20 µM. In the case of `Cn1nc2ccc(OCc3ccccn3)cc2c1C(=O)NCc1cccc(OC(F)F)c1` [Cpd 210, N-{[3-(difluoromethoxy)phenyl]methyl}-2-methyl-5-[(pyridin-2-yl)methoxy]-2H-indazole-3-carboxamide], the IC50 is reported as > 20 µM. In the case of `Cn1nc2ccc(OCc3ccccn3)cc2c1C(=O)NC1(CO)CC(F)(F)C1` [Cpd 217, N-[3,3-difluoro-1-(hydroxymethyl)cyclobutyl]-2-methyl-5-[(pyridin-2-yl)methoxy]-2H-indazole-3-carboxamide], the IC50 is reported as 1 to 20 µM. `C=C(Nc1cc(C(F)(F)F)cnc1O)c1c2cc(OCc3ccccn3)ccc2nn1C` [Cpd 218, 3-[(1-{2-methyl-5-[(pyridin-2-yl)methoxy]-2H-indazol-3-yl}ethenyl)amino]-5-(trifluoromethyl)pyridin-2-ol] was tested, and the IC50 was > 20 µM. With `Cn1nc2ccc(OCc3ccccn3)cc2c1C(=O)NC1(CO)COC(C)(C)OC1` [Cpd 219, N-[5-(hydroxymethyl)-2,2-dimethyl-1,3-dioxan-5-yl]-2-methyl-5-[(pyridin-2-yl)methoxy]-2H-indazole-3-carboxamide] the IC50 was > 20 µM. For `Cn1nc2ccc(OCc3ccccn3)cc2c1C(=O)NC(CO)(CCF)C(N)=O` (stereo not drawn) [Cpd 234, 4-fluoro-2-(hydroxymethyl)-2-({2-methyl-5-[(pyridin-2-yl)methoxy]-2H-indazol-3-yl}formamido)butanamide], the IC50 was < 1 µM. For `Cn1nc2ccc(OCc3ccccn3)cc2c1C(=O)NC(CO)Cn1ccnc1C(F)(F)F` (stereo not drawn) [Cpd 242, N-{1-hydroxy-3-[2-(trifluoromethyl)-1H-imidazol-1-yl]propan-2-yl}-2-methyl-5-[(pyridin-2-yl)methoxy]-2H-indazole-3-carboxamide], the IC50 was > 20 µM. `O=C1NCCn2nc3ccc(OCc4ccccc4F)cc3c21` [Cpd 256, 9-[(2-fluorophenyl)methoxy]-1H,2H,3H,4H-pyrazino[1,2-b]indazol-1-one] was tested, and the IC50 was > 20 µM. For `O=C1NCCn2nc3ccc(OCc4ccccc4)cc3c21` [Cpd 257, 9-(benzyloxy)-1H,2H,3H,4H-pyrazino[1,2-b]indazol-1-one], the IC50 was > 20 µM. `Cn1nc2ccc(OCc3ccccn3)cc2c1C(=O)NC(CO)CO` [Cpd 259, N-(1,3-dihydroxypropan-2-yl)-2-methyl-5-[(pyridin-2-yl)methoxy]-2H-indazole-3-carboxamide] was tested, and the IC50 was 1 to 20 µM. For `O=C1c2c3cc(OCc4ccccc4F)ccc3nn2CCN1C(CO)CO` [Cpd 260, 2-(1,3-dihydroxypropan-2-yl)-9-[(2-fluorophenyl)methoxy]-1H,2H,3H,4H-pyrazino[1,2-b]indazol-1-one], the IC50 was < 1 µM. `O=C1c2c3cc(OCc4ccccc4F)ccc3nn2CCN1CCO` [Cpd 261, 9-[(2-fluorophenyl)methoxy]-2-(2-hydroxyethyl)-1H,2H,3H,4H-pyrazino[1,2-b]indazol-1-one] showed an IC50 of 1 to 20 µM. In the case of `Cn1nc2ccc(OCc3ccccc3F)cc2c1C(=O)NC(CO)CO` [Cpd 262, N-(1,3-dihydroxypropan-2-yl)-5-[(2-fluorophenyl)methoxy]-2-methyl-2H-indazole-3-carboxamide], the IC50 is reported as 1 to 20 µM.
